According to paper PMC11847324, “A communication hub for phosphoregulation of kinetochore-microtubule attachment” (Current biology : CB, 2024):

Assays:
Ndc80c^dwarf [1] = test: Fluorescence polarization competition, reporter Bodipy-FL Mps1(137–171); format: binding, S. cerevisiae
From the text: We measured by fluorescence polarization the affinity of Ndc80^dwarf, a shortened version of Ndc80c[51], for a peptide comprising Mps1 residues 137–171, plus a C-terminal cysteine for labeling. We labeled the peptide with the Bodipy fluorophore and determined fluorescence anisotropy as a function of Ndc80c^dwarf concentration (Figure 3A). We then used unlabeled wild-type and mutant peptides in a competition format, at a fixed Ndc80c^dwarf concentration (Figures 3B,C). The mutant peptides corresponded to mutations characterized in one of the accompanying papers. […] Mutating either the basic residues or the hydrophobic residues in the first part of the consensus motif or the conserved arginine at the end of the second part lowered affinity (raised the Ki) by roughly two logs; mutating both the final arginine and the hydrophobic residues eliminated any detectable competition.
(§1) Figure 3. Fluorescence polarization measurements of Ndc80c^dwarf binding peptides from the N-terminal extensions of Mps1 and Ipl1. (A) Polarization of fluorescence from 20 nM Bodipy-FL Mps1(137–171) (Mps1 residues 137–171 plus a C-terminal cysteine modified with Bodipy-FL -- see Methods) and Bodipy-FL Ipl1 (26–39;45–59) as a function of Ndc80c^dwarf concentration. (B) Competition binding experiment: unlabeled competitor peptides (see figure annotation) were added in twofold serial dilutions to Bodipy-FL Mps1(137–171) and Ndc80c^dwarf at final concentrations of 20 nM and 500 nM respectively. Loss of polarization indicates displacement of bound Bodipy-FL Mps1(137–171) by the competitor. (C) As in (B), with competitor Mps1(137–171) peptides containing mutations that reduce affinity for Ndc80c[40]. (D) Polarization of fluorescence from 20 nM Bodipy-FL Mps1(137–171) as a function of the concentration of Ndc80c^dwarf bearing mutations in Nuf2 that interfere with its Mps1 interaction in cells. (E) As in (B), but with 20 nM Bodipy-FL Ipl1 (26–39;45–59) as the fluorescent reporter and 27μM Ndc80c^dwarf. […] For the Ipl1 peptide, the second copy of the motif, not used for the fluorescence polarization experiments, is shown in the bottom line.
Mps1 (137–171), Ipl1 (26–39;45–59), and Dam1 (254–270;290–305) peptides with added C-terminal cysteines, were synthesized by the Tufts University Core Facility. […] Fluorescence polarization was measured at 25°C with an Envision plate reader (Perkin Elmer) equipped with a filter set optimized for fluorescence polarization of FITC, which has the same absorption and emission spectra as those of Bodipy FL. […] Fluorescence polarization was measured in triplicate. […] An equal volume of a buffer-matched solution containing 40 nM Bodipy-FL labelled peptide and 1 μM Ndc80c^dwarf was added to each of the dilutions, and fluorescence polarization was measured in triplicate. […]

Ndc80c^dwarf [2] = test: Fluorescence polarization competition, reporter Bodipy-FL Ipl1 (26–39;45–59); format: binding, S. cerevisiae; conditions: 20 nM Bodipy-FL Ipl1 (26–39;45–59), 27μM Ndc80c^dwarf; competitor in twofold serial dilutions; 25°C; Figure 3E
Experimental: as §1, with “(B) Competition binding experiment: unlabeled competitor peptides (see figure annotation) were added in twofold serial dilutions to Bodipy-FL Mps1(137–171) and Ndc80c^dwarf at final concentrations of 20 nM and 500 nM respectively.” left out, “cells.” for “cells. (E) As in (B), but with 20 nM Bodipy-FL Ipl1 (26–39;45–59) as the fluorescent reporter and 27μM Ndc80c^dwarf.”
We measured the Ipl1 peptide affinity, both directly (Figure 3A) and by measuring displacement of a fluorophore-labeled Mps1 peptide (Figure 3B) as a function of increasing concentrations of unlabeled Ipl1 peptide. […]
Mps1 (137–171), Ipl1 (26–39;45–59), and Dam1 (254–270;290–305) peptides with added C-terminal cysteines, were synthesized by the Tufts University Core Facility. […] Fluorescence polarization was measured in triplicate. […]

Chain of Ndc80c^dwarf (P33895 1-150): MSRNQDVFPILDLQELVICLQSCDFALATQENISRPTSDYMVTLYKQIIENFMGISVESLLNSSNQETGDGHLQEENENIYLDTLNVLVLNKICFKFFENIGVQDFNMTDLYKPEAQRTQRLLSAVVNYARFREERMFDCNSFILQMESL
Chain of Ndc80c^dwarf (P40460 115-310, further chain): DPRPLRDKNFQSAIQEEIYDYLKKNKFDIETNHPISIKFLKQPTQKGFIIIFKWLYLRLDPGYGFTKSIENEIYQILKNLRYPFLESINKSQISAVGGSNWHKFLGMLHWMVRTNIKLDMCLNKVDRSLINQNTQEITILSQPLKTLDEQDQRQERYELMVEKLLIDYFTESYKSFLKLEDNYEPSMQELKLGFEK

RQNMKEDITAKYAERRSKRFLISNRTTKLGPAKRAC [Mps1 (137–171), peptide comprising Mps1 residues 137–171, plus a C-terminal cysteine for labeling]
displacement of bound Bodipy-FL Mps1(137–171) by unlabeled competitor peptide (Ndc80c^dwarf [1]; 20 nM Bodipy-FL Mps1(137–171), 500 nM Ndc80c^dwarf, competitor in twofold serial dilutions, 20 mM Tris pH 7.2, 100 mM NaCl, 2 mM TCEP, 25°C, triplicate, Figures 3B,C): displaced the fluorescent Mps1 peptide, at a concentration consistent with the affinity measured by direct titration
relative affinity of peptides for Ndc80c^dwarf (comparison in words) (Ndc80c^dwarf [1]; direct titration (Figure 3A) and competition with Bodipy-FL Mps1(137–171) (Figure 3B)): nearly the same
displacement of Bodipy-FL Ipl1 (26–39;45–59) by unlabeled competitor peptide (Ndc80c^dwarf [2]): competed strongly
